According to patent US7332476B2, “Pyridyl substituted ketolide antibiotics” (Novartis AG, priority 2003, dated 2008):
Converted amounts (≈) assume the structure as drawn.

Legend:
[1] = tested on: Streptococcus pyogenes Stpy_8668; assay: MIC, broth microdilution (NCCLS); assay type: cell-based
How it was run: (§1)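 Broth microdilution per NCCLS in cation-adjusted Mueller-Hinton broth, with 2-5% lysed horse blood added for S. pneumoniae. Inoculum 3×10^5–7×10^5 CFU/ml, 2-fold drug dilutions, 18-24 h at 35° C; S. pneumoniae under 5-10% CO2, others ambient air. MIC = lowest concentration preventing visible growth.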

[2] = In vivo pharmacokinetic study in rats, plasma (IV and PO); parameters: species or system Sprague-Dawley rats; conditions: rat
Method: (§2) Animal Models. A total of 54 male Sprague-Dawley rats, weighing 200 grams in average, were evaluated for pharmacokinetic studies of representative pyridyl substituted ketolides. Rats were under overnight food restriction and received water ad libitum. Rats were acclimated for approximately 5 days before antibiotic administration.
(§3) Antibiotic Administration. Rats were given bolus administration through (IV) and oral (PO) routes. Representative pyridyl substituted ketolides and telithromycin, for comparison, were diluted in 0.85% saline to a concentration of 15.0 mg/ml, and the resulting pH was adjusted using 1N acetic acid until the compound was in solution. Approximately 200 microliters of the compound solution was administered to the rats. The target dose for IV and PO administration was 5 mg/kg and 15 mg/kg, respectively.
(§4) Sample Collection. Plasma and whole lung samples were collected from the rats. Plasma samples were obtained from blood samples by centrifugation at 3000 RPM for 10 min. Heparin was added in the plasma as an anticoagulant. Whole lung samples were homogenized in deionized water. Samples were stored at −80° C. A total of 9 time points were collected in triplicate at 0.083, 0.25, 0.5, 1, 2, 4, 6, 8, and 24 hrs. Ketolide concentrations in plasma and lung were determined by well-established non-GLP LC-MS-MS methods. PK parameters were estimated from the raw bioanalytical data using WinNolin software (Version 4.0, Pharsight Corporation, CA). […] All representative compounds were compared to telithromycin.

[3] = tested on: Streptococcus pneumoniae Stpn_280-962; assay: MIC, broth microdilution (NCCLS); assay type: cell-based
How it was run: as §1

[4] = tested on: Streptococcus pneumoniae Stpn_Mef 5654; assay: MIC, broth microdilution (NCCLS); assay type: cell-based; conditions: in µg/mL (unit assumed)
How it was run: as §1

[5] = tested on: Streptococcus pneumoniae Stpn_297-749; assay: MIC, broth microdilution (NCCLS); assay type: cell-based
How it was run: as §1

[6] = tested on: Haemophilus influenzae Hain_2762; assay: MIC, broth microdilution (NCCLS); assay type: cell-based; conditions: Table 10, Strain ID L (Table 8): Haemophilus influenzae Hain_2762; in µg/mL (unit assumed)
How it was run: (§5)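 Following NCCLS guidance, each isolate at 3×10^5–7×10^5 CFU/ml met serially halved compound concentrations in cation-adjusted Mueller-Hinton broth or Haemophilus Test Medium. The endpoint was the lowest concentration giving no visible growth after 18-24 hours at 35° C.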

[7] = tested on: Staphylococcus aureus Stau_33591; assay: MIC, broth microdilution (NCCLS); assay type: cell-based; conditions: Table 10, Strain ID B (Table 8): Staphylococcus aureus Stau_33591; unit assumed
How it was run: as §5

[8] = tested on: Haemophilus influenzae Hain_960820544-3; assay: MIC, broth microdilution (NCCLS); assay type: cell-based; conditions: Table 10, Strain ID J (Table 8): Haemophilus influenzae Hain_960820544-3; in µg/mL (unit assumed)
How it was run: as §5

[9] = tested on: Haemophilus influenzae Hain_960730503-3; assay: MIC, broth microdilution (NCCLS); assay type: cell-based; conditions: Table 10, Strain ID I (Table 8): Haemophilus influenzae Hain_960730503-3; in µg/mL (unit assumed)
How it was run: as §5

[10] = tested on: Haemophilus influenzae Hain_953460299-3; assay: MIC, broth microdilution (NCCLS); assay type: cell-based; conditions: Table 10, Strain ID K (Table 8): Haemophilus influenzae Hain_953460299-3; in µg/mL (unit assumed)
How it was run: as §5

[11] = tested on: Enterococcus faecalis Enfa_bc 11148-2; assay: MIC, broth microdilution (NCCLS); assay type: cell-based; conditions: Table 10, Strain ID F (Table 8): Enterococcus faecalis Enfa_bc 11148-2; in µg/mL (unit assumed)
How it was run: as §5

[12] = tested on: Staphylococcus epidermidis Step_14990; assay: MIC, broth microdilution (NCCLS); assay type: cell-based
How it was run: as §1

[13] = tested on: Haemophilus influenzae Hain_49247; assay: MIC, broth microdilution (NCCLS); assay type: cell-based; conditions: unit assumed
[14] = tested on: Streptococcus pneumoniae Stpn_Mef S 3427; assay: MIC, broth microdilution (NCCLS); assay type: cell-based
How it was run: as §1

[15] = tested on: Staphylococcus epidermidis Step_f50654; assay: MIC, broth microdilution (NCCLS); assay type: cell-based
How it was run: as §1

[16] = tested on: Enterococcus faecalis Enfa_29212; assay: MIC, broth microdilution (NCCLS); assay type: cell-based
How it was run: as §1

[17] = tested on: Streptococcus pneumoniae Stpn_Erm S 4297; assay: MIC, broth microdilution (NCCLS); assay type: cell-based
How it was run: as §1

[18] = tested on: Staphylococcus aureus Stau_29213; assay: MIC, broth microdilution (NCCLS); assay type: cell-based; conditions: Table 10, Strain ID A (Table 8): Staphylococcus aureus Stau_29213
How it was run: as §1

[19] = In vivo pharmacokinetic study in rats, whole lung (IV and PO); conditions: male, Sprague-Dawley, 5 mg/kg, rat
Method: as §2, §3, §4

[20] = tested on: Streptococcus pneumoniae Stpn_49619; assay: MIC, broth microdilution (NCCLS); assay type: cell-based
How it was run: as §1

[21] = tested on: S. pneumoniae Stpn_Erm 6849; assay: MIC, broth microdilution (NCCLS); assay type: cell-based, Streptococcus pneumoniae; conditions: Table 5, Strain ID H (Table 4): S. pneumoniae Stpn_Erm 6849; unit assumed
How it was run: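 Lowest drug concentration giving no visible growth after 18-24 hours at 35° C. under 5-10% CO2 was taken as MIC. Twofold serial dilutions in CAMHB plus 2-5% lysed horse blood, final inoculum 3×10^5–7×10^5 CFU/ml, per NCCLS microdilution.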

[22] = tested on: E. coli Esco_25922; assay: MIC, broth microdilution (NCCLS); assay type: cell-based; conditions: Table 5, Strain ID M (Table 4): E. coli Esco_25922; unit assumed
Method: Strains. The bacterial isolates listed in Table 4 were cultivated from −70° C. frozen stocks by two consecutive overnight passages (P1, P2) at 35° C. on 5% blood agar (Remel, Lenexa, Kans.). Chocolate agar (Remel) is used for Haemophilus influenzae. H. influenzae and Streptococcus pneumoniae are incubated in 5-10% CO2
Drug Stock Preparation. To determine the amount of solvent to be used to give the desired final concentration, the formula “weight obtained in mg/final concentration in mg/ml” will be used. It will give the amount of solvent in ml needed to be added to give the desired concentration. For example, if 2.5 mg/ml is the desired concentration and the weight of compound is 13.7 mg, then the amount of solvent to be added is […]. Methanol is used as the solvent to dissolve the test compounds. Further dilution of stock is done in sterile, deionized water. Drug stocks are kept frozen at −70° C., protected from light.
Susceptibility Testing. MICs are determined by the broth microdilution method in accordance with the NCCLS guidelines. In brief, organism suspensions are adjusted to a 0.5 McFarland standard to yield a final inoculum between 3×10^5 and 7×10^5 CFU/ml. Drug dilutions and inocula are made in sterile, cation adjusted Mueller-Hinton Broth (CAMHB) (Remel) for all but S. pneumoniae [CAMHB with 2-5% lysed horse blood (Remel)] and H. influenzae [Haemophilus Test Medium (Remel)]. An inoculum volume of 100 μl is added to wells containing 100 μl of broth with 2-fold serial dilutions of drug. All inoculated microdilution trays are incubated in ambient air at 35° C. for 18-24 hours, except for S. pneumoniae, and H. influenzae (both at 5-10% CO2).
Following appropriate incubation, the MIC is determined and the MIC is defined as the lowest concentration of the drug that prevented visible growth.

SMILES: C=C[C@]12OC(=O)N(CCCCn3cnc(-c4ccc(Cl)nc4)c3)[C@@H]1[C@@H](C)C(=O)[C@H](C)C[C@](C)(OC)[C@H](OC1O[C@H](C)C[C@H](N(C)C)[C@H]1O)[C@@H](C)C(=O)[C@@H](C)C(=O)O[C@@H]2CC (some centres unmarked) [XX]
- MIC ([1]; Table 10, Strain ID G (Table 8): Streptococcus pyogenes Stpy_8668): =0.05
- half-life ([2]; male, Sprague-Dawley, 5 mg/kg, IV, plasma, read-out: t1/2, IV Plasma (converted)): 1.3 h
- AUC ([2]; male, Sprague-Dawley, plasma, IV, dose IV = 5 mg/kg (Compound XIV: IV = 15)): 2300 ng·h/mL
- clearance ([2]; male, Sprague-Dawley, plasma, intravenous): 107 mL/min/kg
- Vd ([2]; male, Sprague-Dawley, plasma, intravenous, read-out: Vss): 12 L/kg
- F, PO ([2]; PO = 15 mg/kg): 26%
- MIC ([3]; Table 10, Strain ID O (Table 8): Streptococcus pneumoniae Stpn_280-962): =0.05
- MIC ([4]; Table 10, Strain ID P (Table 8): Streptococcus pneumoniae Stpn_Mef 5654): 0.2
- MIC ([5]; Table 10, Strain ID N (Table 8): Streptococcus pneumoniae Stpn_297-749): =0.05
- MIC [6]: 0.78
- MIC [7]: > 50 µg/mL
- MIC [8]: 3.13
- MIC [9]: 3.13
- MIC [10]: 6.25
- MIC [11]: 0.1
- MIC ([12]; Table 10, Strain ID C (Table 8): Staphylococcus epidermidis Step_14990): =0.05
- MIC ([13]; Table 10, Strain ID H (Table 8): Haemophilus influenzae Hain_49247): 3.13 µg/mL (≈ 3.65 µM)
- MIC ([14]; Table 10, Strain ID Q (Table 8): Streptococcus pneumoniae Stpn_Mef S 3427): =0.05
- MIC ([15]; Table 10, Strain ID D (Table 8): Staphylococcus epidermidis Step_f50654): =0.05
- MIC ([16]; Table 10, Strain ID E (Table 8): Enterococcus faecalis Enfa_29212): =0.05
- MIC ([17]; Table 10, Strain ID R (Table 8): Streptococcus pneumoniae Stpn_Erm S 4297): =0.05
- MIC [18]: =0.05
- half-life ([19]; IV, whole lung, read-out: t1/2, IV Lung (converted)): 1.4 h
- Kp ([19]; lung/plasma, iv, read-out: L/P ratio, IV): 94
- MIC ([20]; Table 10, Strain ID M (Table 8): Streptococcus pneumoniae Stpn_49619): =0.05

SMILES: CC[C@H]1OC(=O)[C@H](C)C(=O)[C@H](C)[C@@H](OC2O[C@H](C)C[C@H](N(C)C)[C@H]2O)[C@@](C)(OC)C[C@@H](C)C(=O)[C@H](C)[C@H]2N(CCCCn3cnc(-c4ccccc4)c3)C(=O)O[C@]12CC (some centres unmarked) [Compound 7281]
- MIC ([1]; Table 5, Strain ID D (Table 4): S. pyogenes Stpy_8668): =0.05
- MIC [21]: 0.2 µg/mL (≈ 0.242 µM)
- MIC ([3]; Table 5, Strain ID G (Table 4): S. pneumoniae Stpn_280-962 Pen S): =0.05
- MIC ([4]; Table 5, Strain ID J (Table 4): S. pneumoniae Stpn_Mef 5654): 0.4
- MIC [22]: 25 µg/mL (≈ 30.3 µM)
- MIC ([5]; Table 5, Strain ID F (Table 4): S. pneumoniae Stpn_297-749 Pen R): =0.05
- MIC ([12]; Table 5, Strain ID A (Table 4): S. epidermidis Step_14990, in µg/mL (unit assumed)): 0.2
- MIC ([13]; Table 5, Strain ID L (Table 4): H. influenzae Hain_49247): 3.13 µg/mL (≈ 3.79 µM)
- MIC ([14]; Table 5, Strain ID K (Table 4): S. pneumoniae Stpn_Mef S 3427): =0.05
- MIC ([15]; Table 5, Strain ID B (Table 4): S. epidermidis Step_f50654 Pen S, in µg/mL (unit assumed)): 0.1
- MIC ([16]; Table 5, Strain ID C (Table 4): E. faecalis Enfa_29212, in µg/mL (unit assumed)): 0.1
- MIC ([17]; Table 5, Strain ID I (Table 4): S. pneumoniae Stpn_Erm S 4297): =0.05
- MIC ([20]; Table 5, Strain ID E (Table 4): S. pneumoniae Stpn_49619): =0.05
